Source: patent US7674464B2, “Intracellular interleukin-1 receptor antagonists” (The University of Tennessee Research Foundation, priority 2004, dated 2010)

How the values were obtained:
[1] = test system: collagenase (MMP-1); test: IL-1β-induced collagenase (MMP-1) production by dermal fibroblasts, ELISA; type: cell-based, human
Experimental: Confluent fibroblast monolayer cultures were treated for 2 hr with IL-1ra peptides and cultured for 48 h with hrIL-1β. Collagenase protein was measured in culture supernatants by ELISA.
(§1) Furthermore, the effect of the IL-1ra peptides on the stimulation of MMP-1 and TIMP expression was examined. Briefly, fibroblasts were seeded in wells of Flacon 3008 multiwell plates (5×10^4 cells/500 μl Maintenance Medium). After 72 h culture, the medium was removed from each well and replaced with Maintenance Medium (450 μl) containing 5% FCS and 25 μl of IL-1ra peptides or hrsIL-1ra peptide being tested. Two hrs later 25 μl IL-1β (100 pg/ml) was added to appropriate wells. Plates were incubated for 48 h, at which time medium was collected from each well. Levels of TIMP and collagenase produced by fibroblasts during culture were measured by specific ELISA techniques as previously described (Postlethwaite et al., 1988).

[2] = test system: PGE2; test: IL-1β-induced fibroblast PGE2 synthesis, RIA; type: cell-based, human
Experimental: Confluent fibroblast monolayer cultures were preincubated with IL-1ra peptides for 2 h and then with hrIL-1β for 24 h. PGE2 was quantitated by RIA.
Additionally, since IL-1β stimulates PGE2 synthesis by fibroblasts, the effect of peptides disclosed in Table 5 on the PGE2 production by fibroblasts was examined. Briefly, Maintenance Medium in multi-well plates comprising the fibroblasts that were grown to confluency for 3 days was changed to Maintenance Medium containing 2.5% FCS (450 μl/well). This was followed by addition of IL-1ra peptides or hrsIL-1ra (25 μl aliquots) to culture wells 2 hrs prior to addition of hrIL-1β (100 pg/ml). After an additional 24 h incubation, PGE2 was measured in these culture supernatants. PGE2 was extracted from fibroblast culture supernatants and measured by a previously described radioimmunoassay technique (Ballou et al., 1990; Postlethwaite et al., 1989). It was observed that IL-1ra peptide with SEQ ID NO: 15 inhibited IL-1-induced fibroblast synthesis of PGE2 (FIG. 23). Recombinant IL-1ra (100 ng/ml) inhibited IL-1-induced PGE2 production to a level of 150 pg/ml.

[3] = test system: TIMP-1; test: IL-1β-stimulated TIMP-1 production by fibroblasts, ELISA; type: cell-based, human
Experimental: TIMP-1 was measured in the same fibroblast culture supernatants as in FIG. 21.
as §1

[4] = test system: D10.G4.1 T cells; test: lymphocyte mitogenesis assay: IL-1α-stimulated proliferation of D10.G4.1 T cells; type: cell-based, murine; conditions: peptides added 1 hour before IL-1α (10 ng/ml)
Experimental: An hour prior to the addition of hrIL-1α, the IL-1ra peptides were added to cultures of murine T cell line, D10.G4.1 and ^3H thymidine incorporation was quantitated.
Since sIL-1ra blocks IL-1 stimulation of T cells, the abilities of the IL-1ra peptides of Table 5 to inhibit mitogenesis of murine D10.G4.1 cells in response to IL-1α were assessed by performing lymphocyte mitogenesis assay. Briefly, different concentrations of IL-1ra peptides were added to culture 1 hour prior to addition of IL-1α (10 ng/ml). The results are expressed as mean cpm of quadruplicate determinations corrected for background. The standard error of the mean for each sample tested was 10% or less. None of the peptides disclosed in Table 5 inhibited IL-1α stimulation of proliferation of D10.G4.1 T cells (FIG. 20). Further, the uptake of ^125I IL-1ra peptide with SEQ ID NO: 13 by dermal fibroblasts was investigated. Briefly, the SEQ ID NO: 13 peptide (25 μg in 125 μl 0.125 sodium borate buffer pH 8.5) was labeled with ^125I-Bolton Hunter Reagent (New England Nuclear, Boston, Mass.) according to manufacturer's instructions. The labeled IL-1ra was separated from the free ^125I by passage over a Bio-Gel P-2 (BioRad, Richmond, Calif.) 1 ml column equilibrated and eluted with phosphate buffered saline containing 0.1% gelatin. […]

[5] = test system: ICAM-1; test: IL-1β-induced ICAM-1 expression on human dermal fibroblasts; type: cell-based
Experimental: Confluent fibroblast monolayers were cultured for […] with IL-1ra peptides and then for 24 h with IL-1β. ICAM expression on fibroblast monolayers was then quantitated.
Further, since IL-1 upregulates ICAM-1 expression on a variety of cells including fibroblasts, the ability of the peptides disclosed in Table 5 to inhibit IL-1β induced ICAM-1 expression on human dermal fibroblasts was examined. Briefly, fibroblasts were seeded in wells of flat bottom 96 well tissue culture plates (NUNC, Roskilde, Denmark) (1×10^4 cells […] Maintenance Medium). After 72 h, the culture medium was removed from each well and replaced with 450 μl Maintenance Medium and 25 μl of IL-1ra peptides or hrsIL-1ra (100 ng/ml). After incubation at 37° C. for 2 h in 5% CO2 humidified atmosphere, 25 μl hrIL-1β (100 pg/mL final concentration) was added to wells containing IL-1ra peptides or hrsIL-1ra. Wells with 50 μl PBS served as a negative control. PBS 25 μl+[…] IL-1β (100 pg/ml final concentration) was a positive control. Plates were incubated an additional 24 h, after which medium was removed from each well and the cells were fixed with 100 μl of 3.8% formaldehyde in PBS for 5-7 minutes at room temperature. The cells were rinsed twice with culture medium, and 100 μl of monoclonal mouse anti-ICAM-1 antibody (AMAC, Inc., Westbrook, Me.; diluted 0.2 mg original stock diluted 1:800 in culture medium) was applied to designated wells. The plate was then incubated at 4° C. overnight.
After washing the plate thrice with 300 μl of 0.1% BSA-PBS, 200 μl of secondary antibody, goat anti-mouse IgG antibody-conjugated to horseradish peroxidase (Pierce, Rockford, Ill.) diluted 1:4000 in 1% BSA-PBS, was added to each well and the plate was incubated at room temperature for 2 h. After a final wash with 0.1% BSA-PBS, 100 μl of peroxidase substrate solution (Pierce) containing 2,2′-azino-di[3-ethylbenzthiazoline sulfonate] (Kirkegaard & Perry Laboratories, Inc., Gaithersburg, Md.) was added to each well. This was followed 30-40 minutes later by reading of the optical density (OD) at 405 nm by a Microplate Autoreader (Bio-Tek Instruments, Inc., Winooski, Vt.). The color solution was discarded and the plate was then washed twice with PBS. Finally, the cells were digested with 30 μl of 0.6 M NaOH overnight, and the amount of protein in each well was determined using BCA assay reagents (Pierce). ICAM-1 expression was presented as OD/mg protein. […] The hrsIL-1ra (100 ng/mL) inhibited IL-1β-induced ICAM-1 expression to 6 O.D. units/mg of cellular protein.

[6] = biological target: T1, type I IL-1R (Mus musculus, UniProt P13504); test: [125I] IL-1beta competitive binding to type I IL-1 receptors on EL4 6.1 cells; design: IL-1beta from type I IL-1Rs on the EL46.1 cells; endogenous in cells; host or cells: EL4 6.1 (murine T cell line); species or system murine; conditions: 100× excess
T1 sequence (P13504 20-576): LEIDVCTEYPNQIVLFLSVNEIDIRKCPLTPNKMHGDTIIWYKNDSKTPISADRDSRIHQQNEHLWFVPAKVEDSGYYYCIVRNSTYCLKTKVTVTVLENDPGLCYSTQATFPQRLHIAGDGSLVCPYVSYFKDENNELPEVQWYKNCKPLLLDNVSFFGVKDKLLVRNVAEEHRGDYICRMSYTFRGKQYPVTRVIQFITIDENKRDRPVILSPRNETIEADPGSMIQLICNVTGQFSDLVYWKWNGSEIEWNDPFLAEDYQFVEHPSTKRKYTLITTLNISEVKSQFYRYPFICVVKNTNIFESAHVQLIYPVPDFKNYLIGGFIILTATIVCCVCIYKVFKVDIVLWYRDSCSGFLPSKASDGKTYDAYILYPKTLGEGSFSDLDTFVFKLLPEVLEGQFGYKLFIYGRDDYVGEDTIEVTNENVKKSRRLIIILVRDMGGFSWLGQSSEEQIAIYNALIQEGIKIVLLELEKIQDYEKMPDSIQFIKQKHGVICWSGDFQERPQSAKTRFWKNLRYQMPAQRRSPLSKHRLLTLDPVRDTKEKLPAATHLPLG
Experimental: IL-1 beta for binding to type I IL-1 receptors on murine cells. EL46.1 cells were incubated at 4° C. in presence of the sodium azide for 2 hr with and without each of the IL-1ra peptides or with soluble human recombinant interleukin 1ra (shrIL-1ra) as a control. Cells were then incubated with [^125I]hrIL-1, transferred to microfuge tubes containing phthalolate oil, centrifuged and free and bound radioactivity determined. Non-specific binding was determined in the presence of 100× excess concentration of cold hrIL-1 beta.
None of the peptides were able to displace [^125I] IL-1beta from type I IL-1Rs on the EL46.1 cells (FIG. 19). Additionally a competitive binding assay was performed in which the IL-1ra peptides were added to the EL4 cells at the same time [^125I] was added. No displacement of [^125I] IL-1 beta was observed from its receptors in the presence of these IL-1ra peptides.

[7] = biological target: T1, type I IL-1R; design: host or cells: EL4.IL-2 murine thymoma cells; conditions: murine thymoma cell line EL4.IL-2; read-out: affinity (Kp) for type I IL-1R; cited from earlier work
[8] = listed as 60-90 (SEQ ID NO: 15)

Row | Substance | inhibition of IL-1-induced collagenase production by fibroblasts [1] | inhibition of IL-1-induced fibroblast PGE2 synthesis [2, 8] | inhibition of IL-1-induced fibroblast PGE2 synthesis ([2]; listed as IL-1ra peptide 60-90) | inhibition of IL-1-induced fibroblast PGE2 synthesis ([2]; listed as SEQ ID NO: 15) | inhibition of IL-1β-induced TIMP-1 production by fibroblasts [3] | inhibition of IL-1-stimulated proliferation of D10.G4.1 T cells [4] | inhibition of IL-1β-induced ICAM-1 expression on fibroblasts [5, 8] | inhibition of IL-1β-induced ICAM-1 expression on fibroblasts ([5]; listed as IL-1ra peptide 60-90) | inhibition of IL-1β-induced ICAM-1 expression on fibroblasts ([5]; listed as SEQ ID NO: 15) | displacement of [125I] IL-1 beta from EL4 cells [6] | level to which IL-1-induced PGE2 production was inhibited ([2]; 100 ng/ml) | Kd [7] | level to which IL-1β-induced ICAM-1 expression was inhibited ([5]; 100 ng/mL)
1 | IHGGKMCLSCVKSGDETRLQLEAVNITDLSE (IL-1ra peptides representing the mature form of human sIL-1ra) [IL-1ra 60-90, synthetic peptide, residues 60-90 of IL-1ra] | failed to block | blocked | inhibited | inhibited | failed to block | did not block | blocked | inhibited | inhibited the ICAM-1 expression on cultured fibroblasts in a dose dependent manner |  |  |  | 
2 | hrsIL-1ra: soluble human recombinant interleukin 1ra, used as control [reference compound] |  |  |  |  |  |  |  |  |  | greater than 90% | 150 pg/mL | 0.15 nM | 6 O.D. units/mg of cellular protein
